Patent US12162867B2, “Inhibitors of RNA helicase DHX9 and uses thereof” (ACCENT THERAPEUTICS, INC., priority 2022, dated 2024)

Each compound was assayed on circBRIP1 in HCT116 cells (assay: DHX9 circBRIP1 cellular target engagement TaqMan Multiplex assay (qPCR)). Conditions: Homo sapiens, HCT-116, 72 h, circBRIP1, HCT116 cells, 72 hours; Taqman assay (marked *); read-out: DHX9 Cellular Target Engagement EC50.
Type: cell-based

Compound | EC50
Cn1cc(C(=O)Nc2cc(Cl)cc(NS(C)(=O)=O)c2)cc1-c1ncc(F)cc1OC(F)F [Example 363] | 0.171 µM
CCS(=O)(=O)Nc1cc(Cl)cc(NC(=O)c2cc(-c3ncc(F)cc3Cl)c(C)s2)c1 [Example 355] | 0.362 µM
Cc1sc(C(=O)Nc2cc(Cl)cc(NS(C)(=O)=O)c2)cc1-c1ncc(C(F)(F)F)cc1F [Example 368] | 0.31 µM
CCS(=O)(=O)Nc1cc(Cl)cc(NC(=O)c2cc(-c3ncc(F)cc3C)c(C)s2)c1 [Example 350] | 0.257 µM
CCCS(=O)(=O)Nc1cc(Cl)cc(NC(=O)c2cc(-c3ncccc3C)cs2)c1 [Example 372] | 2.12 µM
Cc1sc(C(=O)Nc2cc(Cl)cc(NS(C)(=O)=O)c2)cc1-c1ncc(C(F)(F)F)cn1 [Example 357] | 0.119 µM
Cc1sc(C(=O)Nc2cc(Cl)cc(NS(C)(=O)=O)c2)cc1-c1c(F)cncc1F [Example 362] | 0.124 µM
COc1cnc(-c2cc(C(=O)Nc3cc(Cl)cc(NS(C)(=O)=O)c3)sc2C)c(Cl)c1 [Example 364] | 0.387 µM
Cc1cccnc1-c1csc(C(=O)Nc2cc(Cl)cc(N(C)S(C)(=O)=O)c2)c1 [Example 374] | > 10 µM
Cc1sc(C(=O)Nc2cc(Cl)cc(NS(C)(=O)=O)c2)cc1-c1ncc(C#N)cc1F [Example 375] | 0.68 µM
CS(=O)(=O)Nc1cc(Cl)cc(NC(=O)c2cc(-c3ccc(C(F)(F)F)cn3)cs2)c1 [Example 370] | 0.171 µM
Cc1cc(F)cnc1-c1cc(C(=O)Nc2cc(Cl)cc(NS(C)(=O)=O)c2)sc1C [Example 348] | 0.228 µM

Same assay, conditions: Homo sapiens, HCT-116, circBRIP1, HCT116 cells; * Taqman assay was used; read-out: DHX9 Cellular Target Engagement EC50

Compound | EC50
Cc1sc(C(=O)Nc2cc(Cl)cc(NS(C)(=O)=O)c2)cc1-c1ccc(P(C)(C)=O)cn1 [Example 647] | 0.998 µM
Cn1cc(C(=O)Nc2cc(Cl)cc(NS(C)(=O)=O)c2)cc1-c1ncc(F)cc1Cl [Example 544] | 0.538 µM
Cc1ccnc(OCc2cncc(F)c2)c1-c1cc(C(=O)Nc2cc(Cl)cc(NS(C)(=O)=O)c2)cn1C [Example 624] | 0.442 µM
Cc1cc(N2CC(F)(F)C2)cnc1-c1cc(C(=O)Nc2cc(Cl)cc(NS(C)(=O)=O)c2)cn1C [Example 461] | 0.158 µM
CCOc1cc(F)cnc1-c1cc(C(=O)Nc2cc(Cl)cc(NS(C)(=O)=O)c2)cn1C [Example 561] | 0.274 µM
COc1cnc(-c2cc(C(=O)Nc3cc(Cl)cc(NS(C)(=O)=O)c3)cn2CC(F)(F)F)nc1 [Example 563] | 0.327 µM
Cc1cc(N2CCC(F)(F)CC2)cnc1-c1cc(C(=O)Nc2cc(Cl)cc(NS(C)(=O)=O)c2)cn1C [Example 600] | 0.186 µM
Cc1sc(C(=O)Nc2cc(Cl)cc(NS(=O)(=O)CCO)c2)cc1-c1ncc(OC(C)C)cn1 [Example 582] | 0.21 µM
CCS(=O)(=O)Nc1cc(Cl)cc(NC(=O)c2cc(C)n(-c3ncc(F)cc3F)c2)c1 [Example 445] | 0.319 µM
Cc1cc(C(=O)Nc2cc(Cl)cc(NS(C)(=O)=O)c2)cn1-c1ncc(N2CCC(F)(F)C2)cn1 [Example 409] | 0.177 µM
CS(=O)(=O)Nc1cc(Cl)cc(NC(=O)c2cc(-c3ncc(F)cn3)n(C3CNC3)c2)c1 [Example 652] | 3.77 µM
Cc1sc(C(=O)Nc2cc(Cl)cc(NS(C)(=O)=O)c2)cc1-c1ncc(F)cc1N1CCC2(CC1)CC2 [Example 507] | 1.86 µM
CC(C)n1cc(C(=O)Nc2cc(Cl)cc(NS(C)(=O)=O)c2)cc1-c1ncc(F)cn1 [Example 667] | 0.804 µM
Cc1sc(C(=O)Nc2cc(Cl)cc(NS(C)(=O)=O)c2)cc1-c1ncc(C(C)(O)C2CN(C)C2)cc1F (stereo not shown) [Example 653] | 0.292 µM
Cc1sc(C(=O)Nc2cc(Cl)cc(NS(C)(=O)=O)c2)cc1N1C(=O)N(C)C(C)(c2ccccn2)C1=O (stereo not shown) [Example 660] | > 10 µM
Cc1cc(C(=O)Nc2cc(Cl)cc(NS(C)(=O)=O)c2)cn1-c1ncc(F)cc1-c1cncc(F)c1 [Example 666] | 0.427 µM
CS(=O)(=O)Nc1cc(Cl)cc(NC(=O)c2cc(-c3ncc(OC4CN(S(C)(=O)=O)C4)cn3)n(CC(F)(F)F)c2)c1 [Example 651] | 0.535 µM
Cn1cc(C(=O)Nc2cc(Cl)cc(NS(C)(=O)=O)c2)cc1-c1ccc(N2CCN(C(=O)C(C)(C)C)CC2)cn1 [Example 591] | 0.13 µM
Cn1cc(C(=O)Nc2cc(Cl)cc(NS(C)(=O)=O)c2)cc1-c1ccc(N2CCN(C(=O)C3CCC3)CC2)cn1 [Example 593] | 0.17 µM
Cc1cc(F)cc(C#N)c1-c1cc(C(=O)Nc2cc(Cl)cc(NS(C)(=O)=O)c2)cn1C [Example 659] | > 10 µM
CN1CC[C@@H](Oc2cnc(-c3cc(C(=O)Nc4cc(Cl)cc(NS(C)(=O)=O)c4)cn3CC(F)(F)F)nc2)C1 [Example 641] | 0.0552 µM
Cn1cc(C(=O)Nc2cc(Cl)cc(NS(C)(=O)=O)c2)cc1-c1c(F)cc(F)c[n+]1[O-] [Example 567] | 0.34 µM
Cc1sc(C(=O)Nc2cc(Cl)cc(NS(C)(=O)=O)c2)cc1-c1ncc(F)cc1N1CCS(=O)(=O)CC1 [Example 503] | 9.03 µM
Cc1sc(C(=O)Nc2cc(Cl)cc(NS(C)(=O)=O)c2)cc1-c1ncc(OC2CNC2)cc1F [Example 637] | 0.427 µM
Cc1sc(C(=O)Nc2cc(Cl)cc(NS(C)(=O)=O)c2)cc1-c1ncc(F)cc1N1CCN(S(C)(=O)=O)CC1 [Example 506] | 0.725 µM
Cc1cc(C(=O)Nc2cc(Cl)cc(NS(C)(=O)=O)c2)cn1-c1ccc(N2CCOC2=O)cn1 [Example 416] | 0.133 µM
Cn1cc(C(=O)Nc2cc(Cl)cc(NS(C)(=O)=O)c2)cc1-c1ccccc1/C=C/c1cncc(F)c1 [Example 727] | 0.71 µM

Compound | EC50
Cc1cnc(-c2cc(C(=O)Nc3cc(Cl)cc(NS(C)(=O)=O)c3)cn2C)c(F)c1 [Example 580] | 0.156 µM
Cn1cc(C(=O)Nc2cc(Cl)cc(NS(C)(=O)=O)c2)cc1-c1ncc(F)cc1/C=C/c1cncc(F)c1 [Example 729] | 0.382 µM
CCc1sc(C(=O)Nc2cc(Cl)cc(NS(C)(=O)=O)c2)cc1-c1ncccc1F [Example 587] | 0.128 µM
Cc1cc(C(=O)Nc2cc(Cl)cc(NS(C)(=O)=O)c2)cn1-c1ncc(N2CC(F)(F)C2)cc1OC(C)C [Example 672] | 0.154 µM
Cc1cc(C(=O)Nc2cc(Cl)cc(NS(C)(=O)=O)c2)cn1-c1ncc(N2CCOC2=O)cn1 [Example 417] | 0.223 µM
Cn1cc(C(=O)Nc2cc(Cl)cc(NS(C)(=O)=O)c2)cc1-c1ccc(N2CCN(C(=O)C3CC3)CC2)cn1 [Example 594] | 0.14 µM
Cc1sc(C(=O)Nc2cc(Cl)cc(NS(C)(=O)=O)c2)cc1-c1ncc(OC(C)(C)C(=O)O)cn1 [Example 670] | > 10 µM
Cn1cc(C(=O)Nc2cc(Cl)cc(NS(C)(=O)=O)c2)cc1-c1ncc(N2CCN(C(=O)C3CC3)CC2)cc1F [Example 714] | 0.181 µM
Cc1cc(N2CCC(F)(F)CC2)cnc1-c1cc(C(=O)Nc2cc(Cl)cc(NS(C)(=O)=O)c2)sc1C [Example 602] | 0.18 µM
Cc1sc(C(=O)Nc2cc(Cl)cc(NS(C)(=O)=O)c2)cc1-c1ncc(OC(C)C(=O)O)cn1 (stereo not shown) [Example 671] | > 10 µM
Cc1sc(C(=O)Nc2cc(Cl)cc(NS(C)(=O)=O)c2)cc1-c1ncc(O)cn1 [Example 583] | 0.0431 µM
CS(=O)(=O)Nc1cc(Cl)cc(NC(=O)c2cc(-c3ncc(F)cn3)n(C3CC3)c2)c1 [Example 712] | 0.312 µM
Cc1cc(C(=O)Nc2cc(Cl)cc(NS(C)(=O)=O)c2)cn1-c1ncc(OC(C)(C)C)cc1F [Example 662] | 0.14 µM
Cc1cc(C(=O)Nc2cc(Cl)cc(NS(C)(=O)=O)c2)cn1-c1ncc(N2CCCC2=O)cn1 [Example 401] | 0.135 µM
CC(C)Oc1cnc(-c2csc(C(=O)Nc3cc(Cl)cc(NS(C)(=O)=O)c3)c2)c(F)c1 [Example 458] | 0.199 µM
Cc1cc(C(=O)Nc2cc(Cl)cc(NS(C)(=O)=O)c2)cn1-c1ncc(F)cc1F [Example 444] | 0.16 µM
Cc1sc(C(=O)Nc2cc(Cl)cc(NS(C)(=O)=O)c2)nc1-c1ccc(F)cn1 [Example 716] | > 10 µM
Cc1sc(C(=O)Nc2cc(Cl)cc(NS(C)(=O)=O)c2)cc1-c1ncc(N2CCC3(CC2)CC3)cc1F [Example 467] | 0.164 µM
CN1CC[C@H](Oc2cnc(-c3cc(C(=O)Nc4cc(Cl)cc(NS(C)(=O)=O)c4)cn3CC(F)(F)F)nc2)C1 [Example 642] | 0.0945 µM
CCc1sc(C(=O)Nc2cc(Cl)cc(NS(C)(=O)=O)c2)cc1-c1ccc(F)cn1 [Example 589] | 0.117 µM
COC1CCN(c2cc(F)cnc2-c2cc(C(=O)Nc3cc(Cl)cc(NS(C)(=O)=O)c3)sc2C)C1 (stereo not shown) [Example 505] | 0.219 µM
CS(=O)(=O)Nc1cc(Cl)cc(NC(=O)c2cc(-c3ccc(F)cn3)n(S(C)(=O)=O)c2)c1 [Example 701] | 0.638 µM
Cc1cccnc1-c1csc(C(=O)Nc2cc(Cl)cc(NS(C)(=O)=O)c2)c1C [Example 684] | > 10 µM
Cn1cc(C(=O)Nc2cc(Cl)cc(NS(C)(=O)=O)c2)cc1-c1ccc(N2CCC3(C2)CC3(F)F)cn1 (stereo not shown) [Example 495] | 0.142 µM
Cc1cc(N2CC(F)(F)C2)cnc1-n1cc(C(=O)Nc2cc(Cl)cc(NS(C)(=O)=O)c2)cc1C [Example 419] | 0.121 µM
CS(=O)(=O)Nc1cc(Cl)cc(NC(=O)c2cc(-c3ncc(F)cn3)c(Cl)s2)c1 [Example 450] | 0.266 µM

Same assay, conditions: Homo sapiens, HCT-116, circBRIP1, HCT116 cells; cell carries no mark, SyBr or Taqman not indicated; read-out: DHX9 Cellular Target Engagement EC50

Compound | EC50
Cc1sc(C(=O)Nc2cc(Cl)cc(NS(C)(=O)=O)c2)cc1-c1c(F)cc(F)c[n+]1[O-] [Example 736] | 0.372 µM

Same assay, conditions: Homo sapiens, HCT-116, read-out: DHX9 Cellular Target Engagement EC50 (μM)

Compound | EC50
Cc1sc(C(=O)Nc2cc(Cl)cc(NS(C)(=O)=O)c2)cc1-c1ncc(N2CC[Si](C)(C)CC2)cc1F [Example 473] | 0.426 µM
Cn1cc(C(=O)Nc2cc(Cl)cc(NS(C)(=O)=O)c2)cc1-c1ncc(N2CC[Si](C)(C)CC2)cc1F [Example 470] | 0.62 µM

What follows are compounds tested on circBRIP1 in HCT116 cells (assay: DHX9 circBRIP1 cellular target engagement SYBR Green assay (qPCR)). Conditions: Homo sapiens, HCT-116, circBRIP1, HCT116 cells; SyBr assay (marked ^+); read-out: DHX9 Cellular Target Engagement EC50.
Type: cell-based

Compound | EC50
CS(=O)(=O)Nc1cc(Cl)cc(NC(=O)c2cc(N3CCOCC3)cs2)c1 [Example 245] | 4310 nM
CS(=O)(=O)Nc1cc(Cl)cc(NC(=O)c2cc(-c3ccccc3)cs2)c1 [Example 75] | 1640 nM
